By IC50 is commonly meant the concentration that gives 50% inhibition.

Assay type in all cases: cell-based
Experiment [1] deals with MM1.S cells. Kind of experiment: Cell apoptosis assay (Annexin V-FITC/PI flow cytometry). The note with it: 48 h. As for the experimental part:
For the cell apoptosis assay, MM1.S cells were plated in 12-well plates with a density of 6 × 10^5 cells per well and treated with BC-05 (1, 2, and 4 μM), ixazomib (10 nM) or a vehicle (0.5% DMSO) for 48 h after 12 h fixation. Then, cells were harvested, washed with a cold PBS buffer, and resuspended in 500 μL of an annexin V binding buffer. After being stained with 5 μL of Annexin V-FITC and 5 μL of propidium iodide, the cells were detected by a flow cytometer (Beckman Coulter Inc., Sharon Hill, PA, USA).
Background: Flow cytometry measures light scatter and fluorescence of single cells or particles in a stream.

Experiment [2] concerns MM1.S cells. Kind of experiment: Cell cycle assay (PI flow cytometry). The note with it: MM1.S, 1, 2 and 4 µM, 48 h. As to the method: For the cell cycle assay, MM1.S cells were plated in 6-well plates with a density of 2.5 × 10^6 cells per well. A total of 12 h later, BC-05 (1, 2, and 4 μM), ixazomib (10 nM), or a vehicle (0.5% DMSO) was added, and the mixture was incubated for 48 h. Subsequently, cells were harvested, washed with cold PBS, and fixed in 75% cold ethanol at −20 °C overnight. After washing off the ethanol, fixed cells were treated with RNase A, dyed with propidium iodide solution (20 μg/mL), and incubated in the dark at 37 °C for 30 min. The final assay was analyzed using a Beckman flow cytometer.

In experiment [3] the test system is P21WAF1/Cip1 in MM1.S cells. In words: Western blot analysis, P21. Particulars: 24 h. As to the method: MM1.S cells were seeded in 6-well plates with a density of 2.5 × 10^6 cells/well. Then, the cells were cultured with 1, 2, and 4 μM BC-05 and 10 nM ixazomib, respectively. After incubation for 24 h, the cells were collected, and total proteins were extracted via RIPA containing a 2% protease inhibitor cocktail. Cell lysates were centrifugated at 4 °C, 12,000 rpm for 15 min, and the supernatants were collected and quantified with BCA assay. After being boiled at 100 °C for 10 min in a NuPAGE lithium dodecyl sulfate (LDS) sample buffer (5X), equivalent samples were separated by 12% sodium dodecyl-sulfate polyacrylamide gel electrophoresis at 120 V, transferred to immune-blot poly(vinylidene fluoride) (PVDF) membranes (Merck Millipore, Burlington, MA, USA) at 4 °C and then blocked by 5% non-fat milk in TBST for an hour. The membranes were incubated overnight at 4 °C with certain primary antibodies, which were deliquates by an antibody dilution buffer (Boster Bio, Pleasanton, CA, USA) and then washed with TBST. After incubating with a horseradish (HRP)-conjugated secondary antibody for 1 h at room temperature, the membranes were washed five times with TBST for 5 min. The images were visualized on the Tanon-5200 Chemiluminescent Imaging System via luminol reaction. […]
A general note: In western blotting, separated proteins are transferred to a membrane and probed.

Experiment [4] has as its system MM.1S. Kind of experiment: Cell proliferation analysis (MTT). The note with it: Homo sapiens, MM1.S, 48 h, read-out: Anti-proliferative activity IC50, MM.1S. As to the method:
(§1) All tumor cell lines in the current research were grown in a certain growth medium containing 10% FBS and 1% (v/v/v) penicillin–streptomycin–amphotericin at 37 °C in 5% CO2. Cells were seeded into 96-well plates at a density of 8 × 10^3 cells per well for tumor adherent cells and 2 × 10^4 cells per well for tumor-suspended cells in a final volume of 100 μL. After 12 h, 100 μL of various concentrations of compounds was added to each and incubated for 48 h. A 0.5% MTT solution was added per well before the intermixture was incubated for another 4 h, and formazan formed from MTT was extracted by adding […] of DMSO rocking for 15 min. Absorbance was measured at 570 nm using a Spark multimode microplate from Tecan. The IC50 values were calculated according to the inhibition ratios.

Experiment [5] relates to HCT116. Kind of experiment: Cell proliferation analysis (MTT). The note with it: Homo sapiens, HCT-116, 48 h, read-out: Anti-proliferative activity IC50, HCT116. As for the experimental part:
as §1

Experiment [6] relates to Hela. In words: Cell proliferation analysis (MTT). The note with it: Homo sapiens, 48 h, read-out: Anti-proliferative activity IC50, Hela. As to the method: as §1
The test system of experiment [7] is A2780. In words: Cell proliferation analysis (MTT). The note with it: Homo sapiens, 48 h, read-out: Anti-proliferative activity IC50, A2780. As for the experimental part: as §1
For experiment [8], the system named is ARP-1. Kind of experiment: Cell proliferation analysis (MTT). The note with it: 48 h, read-out: Anti-proliferative activity IC50, ARP-1. As to the method:
as §1

For experiment [9], the system named is PC3. Kind of experiment: Cell proliferation analysis (MTT). Particulars: Homo sapiens, PC-3, 48 h, read-out: Anti-proliferative activity IC50, PC3. As for the experimental part: as §1
Experiment [10] has as its system U251. Kind of experiment: Cell proliferation analysis (MTT). The note with it: Homo sapiens, U-251, 48 h, read-out: Anti-proliferative activity IC50, U251. As to the method: as §1
For experiment [11], the system named is MDA-MB-231. Kind of experiment: Cell proliferation analysis (MTT). The note with it: Homo sapiens, 48 h, read-out: Anti-proliferative activity IC50, MDA-MB-231. As for the experimental part:
as §1

Experiment [12] relates to SP2. In words: Cell proliferation analysis (MTT). Particulars: 48 h, read-out: Anti-proliferative activity IC50, SP2. As to the method:
as §1

In experiment [13] the test system is KG1. Kind of experiment: Cell proliferation analysis (MTT). The note with it: Homo sapiens, KG-1, 48 h, read-out: Anti-proliferative activity IC50, KG1. As for the experimental part: as §1
For experiment [14], the system named is HEL. Kind of experiment: Cell proliferation analysis (MTT). Particulars: Homo sapiens, 48 h, read-out: Anti-proliferative activity IC50, HEL. As for the experimental part: as §1
The subject of experiment [15] is HT-29. In words: Cell proliferation analysis (MTT). The note with it: Homo sapiens, 48 h, read-out: Anti-proliferative activity IC50, HT-29. As for the experimental part: as §1
Experiment [16] relates to U266. Kind of experiment: Cell proliferation analysis (MTT). Particulars: Homo sapiens, U-266, 48 h, read-out: Anti-proliferative activity IC50, U266. As for the experimental part: as §1
Experiment [17] has as its system RPMI-8266. Kind of experiment: Cell proliferation analysis (MTT). Particulars: RPMI8266, 48 h, read-out: Anti-proliferative activity IC50, RPMI-8266. As for the experimental part: as §1

On to `CC(C)C[C@H](NC(=O)[C@@H](O)[C@H](N)Cc1ccccc1)B1OC(=O)C(CC(=O)O)(CC(=O)O)O1` [BC-05, 2,2′-(2-((R)-1-((2S,3R)-3-amino-2-hydroxy-4-phenylbutanamido)-3-methylbutyl)-5-oxo-1,3,2-dioxaborolane-4,4-diyl)diacetic acid], for which the cell apoptosis in experiment [1] (1 µM) is 12.4%; in experiment [1] (2 µM), 73.1%; in [1] (4 µM), 88.0%. Also, the cell cycle arrest entry in [2] is “blocks MM1.S cells in the Sub-G1 phase”. In addition, in experiment [3], the “P21WAF1/Cip1 level (Western blot)” value was “significantly upregulates”. Besides, the IC50 in experiment [4] turned out to be 1.53 ± 0.24 µM; in [5], 86.7 ± 7.34 µM; in experiment [6], 83.1 ± 8.79 µM; in [7] it was 33.7 ± 0.99 µM; in [8], 10.2 ± 1.23 µM; in [9], 47.4 ± 4.22 µM. Moreover, the IC50 was 47.5 ± 11.9 µM in experiment [10]; 13.3 ± 0.49 µM in [11]; 14.7 ± 4.91 µM in experiment [12]; 41.6 ± 4.11 µM in experiment [13]; 13.3 ± 2.81 µM in experiment [14]; 12.5 ± 1.21 µM in experiment [15]. For the same molecule, the values for the IC50 in experiment [16] and in experiment [17] were 13.7 ± 1.43 µM and 15.1 ± 2.23 µM, respectively.

Values taken from paper PMC10489073 (Molecules, 2023).
